Test results: patent publication US20220267356A1, “ARGINASE INHIBITORS AND METHODS OF USE THEREOF” (AstraZeneca AB, priority 2019, published 2022)

Tests used:
Human Arginase 1 = molecular target: T1, Human Arginase 1 (Homo sapiens, UniProt P05089); test: Human Arginase 1 enzyme inhibition (thioarginine/DTNB absorbance at 412 nm); assay type: biochemical; details: recombinant enzyme 5 nM, 60 min, room temperature
T1 construct: made in house; host or cells: E. coli
T1 sequence (P05089 1-322): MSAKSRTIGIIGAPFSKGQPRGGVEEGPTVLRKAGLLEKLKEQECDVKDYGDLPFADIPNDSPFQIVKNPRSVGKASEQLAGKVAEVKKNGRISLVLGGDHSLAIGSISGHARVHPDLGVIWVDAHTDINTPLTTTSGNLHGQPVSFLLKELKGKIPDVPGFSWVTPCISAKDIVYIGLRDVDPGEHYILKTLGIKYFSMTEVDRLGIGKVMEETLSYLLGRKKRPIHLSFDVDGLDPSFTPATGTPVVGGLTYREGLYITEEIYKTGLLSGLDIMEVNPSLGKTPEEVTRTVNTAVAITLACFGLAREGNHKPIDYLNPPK
From the text: (§1) The inhibitory effects of Examples 1-26 on the activity of Human Arginase 1 and Arginase 2 activity were quantified by measuring the formation of the thiol group from thioarginine using recombinant Arginase 1 or Arginase 2 produced from E. coli. The thiol group was detected with Ellman's reagent, 5,5′-dithiobis(2-nitrobenzoic acid) (DTNB). DTNB reacts with the thiol to give the mixed disulfide and 2-nitro-5-thiobenzoic acid (TNB) which is quantified by the absorbance of the anion (TNB^2−) at 412 nm.
(§2) The assays were run in clear 384 well plates (Greiner cat no: 781101). Various concentrations of Examples 1-26 in 300 nL DMSO were dispensed to assay plates using an Echo acoustic dispenser immediately followed by plate sealing and centrifugation. Two pre-mixes were prepared from reagents thawed immediately before addition to assay plates. Pre-mix one comprised human Arginase 1 or human Arginase 2, at a final concentration of 5 nM and 0.5 mM DTNB in assay buffer, 45 mM HEPES pH7.5, brij 35, 0.045% (w/v) and 100 μM MnCl2. Pre-mix two comprised freshly thawed 0.5 mM thioarginine in assay buffer. Fifteen microlitres of pre-mix one was dispensed to assay plates containing Examples 1-9, centrifuged and incubated for 30 minutes at room temperature prior to adding fifteen microlitres of pre-mix two.
(§3) Assay plates were centrifuged prior to reading absorbance at 412 nm in a Pherastar multi-mode plate reader to collect data at time point 0 (T0). The plates were incubated at room temperature for 60 min prior to reading again to collect data at time point 1 (T1). Data is derived by subtracting the A412 signal measured at T0 (time point 0) from that measured at T1 (time point 1). The data was transformed to % effect using the equation:
(§4) Compound % effect=100*[(X−min)/(max−min)],
(§5) where X represents the normalized value for the compound based on the Min (vehicle) and Max (reference compound) inhibition control.
(§6) The concentration of Examples 1-26 that inhibited the activity by 50% (i.e.the IC50) was calculated by plotting the % effect versus test compound concentration and fitting the data using the Genedata Screener Smart fit algorithm.

Human Arginase 2 = molecular target: T2, Human Arginase 2 (Homo sapiens, UniProt P78540); test: Human Arginase 2 enzyme inhibition (thioarginine/DTNB absorbance at 412 nm); assay type: biochemical; details: recombinant enzyme 5 nM, 60 min, room temperature
T2 construct: made in house; host or cells: E. coli
T2 sequence (P78540 23-354): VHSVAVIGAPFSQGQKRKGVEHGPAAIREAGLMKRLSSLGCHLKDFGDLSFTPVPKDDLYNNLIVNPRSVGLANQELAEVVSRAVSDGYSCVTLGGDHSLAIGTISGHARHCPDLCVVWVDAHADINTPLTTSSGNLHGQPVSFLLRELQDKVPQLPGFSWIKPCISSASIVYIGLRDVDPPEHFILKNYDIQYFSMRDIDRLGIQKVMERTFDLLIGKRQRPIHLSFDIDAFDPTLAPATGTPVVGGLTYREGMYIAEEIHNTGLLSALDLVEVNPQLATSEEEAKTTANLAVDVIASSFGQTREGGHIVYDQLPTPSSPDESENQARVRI
From the text: as §1, §2, §3, §4, §5, §6

| Structure (SMILES) | IC50 (Human Arginase 1) | IC50 (Human Arginase 2) |
| --- | --- | --- |
| N[C@H](C(=O)O)[C@H](CCCB(O)O)CN1CCOCC1 [Example 2, (2S,3R)-2-amino-6-borono-3-(morpholinomethyl)hexanoic acid] | 38600 nM | 85.2 µM |
| N[C@H](C(=O)O)[C@H](CCCB(O)O)CN1CCCCC1 [Example 3, (2S,3R)-2-amino-6-borono-3-(piperidin-1-ylmethyl)hexanoic acid] | 7060 nM | 16.3 µM |
| CNC[C@@H](CCCB(O)O)[C@H](N)C(=O)O [Example 4, (2S,3R)-2-amino-6-borono-3-((methylamino)methyl)hexanoic acid] | 870 nM | 0.77 µM |
| CN(C)C[C@@H](CCCB(O)O)[C@H](N)C(=O)O [Example 5, (2S,3R)-2-amino-6-borono-3-((dimethylamino)methyl)hexanoic acid] | 2090 nM | 4.31 µM |
| NC(=O)NC[C@@H](CCCB(O)O)[C@H](N)C(=O)O [Example 7, (2S,3R)-2-amino-6-borono-3-(ureidomethyl)hexanoic acid] | 2730 nM | 5.58 µM |
| CC(C)[C@H](N)C(=O)NC[C@@H](CCCB(O)O)[C@H](N)C(=O)O [Example 8, (2S,3R)-2-amino-3-(((S)-2-amino-3-methylbutanamido)methyl)-6-boronohexanoic acid] | 150 nM | 0.49 µM |
| CC[C@H](N)C(=O)NC[C@@H](CCCB(O)O)[C@H](N)C(=O)O [Example 9, (2S,3R)-2-amino-3-(((S)-2-aminobutanamido)methyl)-6-boronohexanoic acid] | 180 nM | 0.41 µM |
| C[C@H](N)C(=O)NC[C@@H](CCCB(O)O)[C@H](N)C(=O)O [Example 10, (2S,3R)-2-amino-3-(((S)-2-aminopropanamido)methyl)-6-boronohexanoic acid] | 160 nM | 0.36 µM |
| CC(=O)NC[C@@H](CCCB(O)O)[C@H](N)C(=O)O [Example 11, (2S,3R)-3-(acetamidomethyl)-2-amino-6-boronohexanoic acid] | 5080 nM | 5.89 µM |
| CN[C@H](C(=O)O)[C@@H](CN)CCCB(O)O [Example 12, (2S,3R)-3-(aminomethyl)-6-borono-2-(methylamino)hexanoic acid] | 400 nM | 1.08 µM |
| CC(C)[C@H](N)C(=O)N[C@H](C(=O)O)[C@@H](CN)CCCB(O)O [Example 13, (2S,3R)-2-((S)-2-Amino-3-methylbutanamido)-3-(aminomethyl)-6-boronohexanoic acid] | 13200 nM | 9.46 µM |
| NCC[C@@H](CCCB(O)O)[C@H](N)C(=O)O [Example 15, (2S,3R)-2-amino-3-(2-aminoethyl)-6-boronohexanoic acid] | 220 nM | 0.48 µM |
| NC(=O)[C@@H](CCCB(O)O)[C@H](N)C(=O)O [Example 16, (2S,3S)-2-amino-6-borono-3-carbamoylhexanoic acid] | 19200 nM | 54.4 µM |
| CNC(=O)[C@@H](CCCB(O)O)[C@H](N)C(=O)O [Example 17, (2S,3S)-2-amino-6-borono-3-(methylcarbamoyl)hexanoic acid] | 34200 nM | > 100 µM |
| CC(C)(C)[C@H](N)C(=O)NC[C@H](CCCB(O)O)[C@H](N)C(=O)O [Example 23, (2S,3S)-2-amino-3-(((S)-2-amino-3,3-dimethylbutanamido)methyl)-6-boronohexanoic acid] | 30 nM | 0.1 µM |
